Assay [1] concerns M. tuberculosis strain resistant to kanamycin (KM).
In assay [2] the test system is M. tuberculosis strain resistant to isoniazid (INH).
For assay [3], the system named is M. tuberculosis strain resistant to cycloserine (CS).
The test system of assay [4] is M. tuberculosis strain resistant to rifampin (RMP).
In assay [5] the test system is M. tuberculosis strain resistant to moxifloxacin (Mox).
Assay [6] deals with M. tuberculosis strain resistant to streptomycin (SM).
For assay [7], the system named is M. tuberculosis strain resistant to capreomycin (CAP).

Each structure is given as a SMILES string. ≈ marks a conversion by molar mass, not a printed value. Numbered stars: 1 amine (or outer) side, 2 acyl side, 3 side chain; on linkers, the order of the positions; unused ones are H or OH. Bridge positions count the residues as written; N and C are the ends. Square brackets hold non-standard residues; d marks the D form. Peptide text beside a SMILES is read from it. * marks the point of attachment. ξ: configuration not given here. NMeTrp(4-OMe) = CN[CH](Cc1c[nH]c2cccc(OC)c12)C(=O)O; X1 = O=C(C(N[*:1])C(O)c1ccccc1)[*:2]; NMeI = CC[CH](C)[CH](NC)C(=O)O; ξNMe2Val = CC(C)C(C(=O)*)N(C)C; NMeT = CN[CH](C(=O)O)[CH](C)O; NMeL = CN[CH](CC(C)C)C(=O)O; NMeV = CN[CH](C(=O)O)C(C)C

What is called MIC is the lowest concentration found to suppress growth. A higher MIC goes with weaker potency. For the compound `CCC(C)C(C(=O)NC1C(=O)N(C)C(C(C)O)C(=O)NC(C(C)C)C(=O)N(C)C(CC(C)C)C(=O)NC(C(C)C)C(=O)N(C)C(C(C)C)C(=O)N(C)C(Cc2c[nH]c3cccc(OC)c23)C(=O)NC(C(C)C)C(=O)NC(C(O)c2ccccc2)C(=O)NC(C(C)C)C(=O)OC1C)N(C)C(=O)C(NC(=O)C(C(C)C)N(C)C)C(C)C` (centres unmarked) [H-14] (ξNMe2Val-V[NMeI]T[NMeT]V[NMeL]V[NMeV][NMeTrp(4-OMe)]V[X1]V; ester 3-C; configuration not given here), the MIC is <0.12 µM in assay [1]; <0.12 µM in assay [2]; <0.12 µM in assay [3]; 0.19 µM (≈ 0.304 µg/mL) in assay [4]; 0.31 µM (≈ 0.496 µg/mL) in assay [5]; <0.12 µM in assay [6]. The compound also had an MIC in assay [7] of 0.29 µM (≈ 0.464 µg/mL).

Consider `CCC(C)C(C(=O)NC1C(=O)N(C)C(C(C)O)C(=O)NC(C(C)C)C(=O)N(C)C(CC(C)C)C(=O)NC(C(C)C)C(=O)N(C)C(C(C)C)C(=O)N(C)C(Cc2c[nH]c3cccc(OC)c23)C(=O)NC(C(C)C)C(=O)NC(Cc2ccccc2)C(=O)NC(C(C)C)C(=O)OC1C)N(C)C(=O)C(NC(=O)C(C(C)C)N(C)C)C(C)C` (centres unmarked) [H-16] (ξNMe2Val-V[NMeI]T[NMeT]V[NMeL]V[NMeV][NMeTrp(4-OMe)]VFV; ester 3-C; configuration not given here), for which the MIC is <0.12 µM in assay [1]; <0.12 µM in assay [2]; <0.12 µM in assay [3]; 0.18 µM (≈ 0.285 µg/mL) in assay [4]; 0.3 µM (≈ 0.475 µg/mL) in assay [5]; <0.12 µM in assay [6]. The MIC in assay [7] was 0.3 µM (≈ 0.475 µg/mL).

The values above are taken from patent publication US9090667B2, “Cyclic peptide from Nonomuraea sp., process for the production thereof, and pharmaceutical composition for the prevention or treatment of mycobacteria related disease comprising the same” (priority 2011, dated 2015).
